We go through 6 compounds from patent US10953029B2, “4′-Substituted nucleoside reverse transcriptase inhibitors and preparations thereof” (Merck Sharp & Dohme Corp., priority 2015, dated 2021).

Like-named read-outs stand apart in the source and are kept apart here.

In one data set the test system is HIV-1 (H9IIIB virus). The experiment in a line: Viking Assay: antiviral potency in a multiple round HIV-1 infection assay (MT4-GFP cells). Conditions: Human immunodeficiency virus 1, 10% normal human serum, read-out: Viking, EC50 (10% NHS). It counts as cell-based. As to the method: Assessing antiviral potency in a multiple round HIV-1 infection assay. HIV-1 replication was monitored using MT4-gag-GFP clone D3 (hereafter designate MT4-GFP), which are MT-4 cells modified to harbor a GFP reporter gene, the expression of which is dependent on the HIV-1 expressed proteins tat and rev. Productive infection of an MT4-GFP cell with HIV-1 results in GFP expression approximately 24 h post-infection.
MT4-GFP cells were maintained at 37° C./5% CO2/90% relative humidity in RPMI 1640 supplemented with 10% fetal bovine serum, 100 U/mL penicillin/streptomycin, and 400 μg/mL G418 to maintain the reporter gene. For infections, MT4-GFP cells were placed in the same medium lacking G418 and infected overnight with H9IIIB virus at an approximate multiplicity of infection of 0.01 in the same incubation conditions. Cells were then washed and re-suspended in either RPMI 1640 containing 10% or 50% normal human serum at 1.6×10^5 cells/mL (10% or 50% NHS conditions) or in 100% normal human serum at 2×10^5 cells/mL (100% NHS conditions). […]
Infected cells were quantified at two time points, ˜48 h and ˜72 h post-infection, by counting the number of green cells in each well using an Acumen eX3 scanner. […] Inhibition of R0 is calculated for each well, and EC50s determined by non-linear 4-parameter curve fitting.

Data set [1] concerns wild-type HIV-1-GFP virus. As to the kind of experiment: Antiviral Persistence in Human Peripheral Blood Mononuclear Cells (PBMC). It counts as cell-based. As to conditions: Human immunodeficiency virus 1, PBMC. The procedure: PBMCs were obtained from Biological Specialty Corporation, activated with 5 μg/ml PHA-P (Sigma L1668) for 72 hrs, and then washed with fresh medium. Following activation, PBMCs were cultured in media containing 10 IU/ml IL-2 (Roche 11011456001). Cells were treated with a titration of compound for 6 or 24 hrs and washed with fresh medium. To evaluate persistence of antiviral activity following wash-out, PBMCs were maintained for either 24 h or 72 h and then infected by adding wild-type HIV-1-GFP virus (17 μL/well) to the plates and incubating at 37° C./5% CO2/90% relative humidity. Infected cells were quantified at 24 h post-infection by counting the number of green cells in each well using an Acumen eX3 scanner. EC50 values in Table 3 were calculated by non-linear 4-parameter curve fitting.
The antiviral persistence assay is meant to assess for the persistence of antiviral activity upon removal of the nucleoside. […] The publication AIDS Research and Therapy, 2009, 6:5, highlights the value of antiviral persistence.

Data set [2] has as its target T1, adenosine deaminase (ADA) type 1 (Homo sapiens, UniProt P00813).
T1 sequence (P00813 1-363): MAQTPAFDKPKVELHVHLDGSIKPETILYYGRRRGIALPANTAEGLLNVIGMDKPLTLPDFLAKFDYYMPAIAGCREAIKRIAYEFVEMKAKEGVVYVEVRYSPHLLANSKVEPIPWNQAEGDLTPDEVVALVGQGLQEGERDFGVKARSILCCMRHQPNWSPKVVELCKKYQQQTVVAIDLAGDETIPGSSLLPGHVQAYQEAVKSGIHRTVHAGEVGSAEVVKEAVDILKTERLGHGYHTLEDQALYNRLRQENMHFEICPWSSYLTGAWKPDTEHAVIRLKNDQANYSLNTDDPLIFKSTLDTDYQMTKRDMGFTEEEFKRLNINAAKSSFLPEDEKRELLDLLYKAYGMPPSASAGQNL
As to the kind of experiment: Adenosine Deaminase (ADA) Half-Life. It counts as in vitro ADME. As to conditions: human ADA type 1 (adenosine deaminase) in Tris-HCl buffer, time for 50% conversion to inosine product, Tris-HCl buffer pH 7.5, 40° C., LCMS. As to the method: The data in Table 4 was generated by testing the reactivity of the substrate compound with human ADA type 1 in the presence of Tris-HCl buffer (pH 7.5) at 40° C. and monitoring by LCMS for consumption of starting material. The time necessary for 50% conversion to the corresponding inosine product is noted as the T1/2 in Table 4. It is known that deamination by adenosine deaminase decreases the therapeutic potential of adenosine-like nucleoside inhibitors especially in vivo (see references below). […] It is possible that compounds that are more resistant to ADA will have better pharmacokinetic properties.

Data set [3] deals with wild-type and multi-drug resistant HIV-1 strains. Conditions: cited from earlier work.
The next data set has as its target T2, HIV-1 RT enzyme (Human immunodeficiency virus type 1 group M subtype B, UniProt P04585).
T2 construct: Full-length wild-type and 2 mutant RT proteins were expressed in Escherichia coli BL21(DE3) cells and purified; made in house; host or cells: Escherichia coli BL21(DE3)
The experiment in a line: RT Polymerase Assay. It counts as biochemical. The procedure:
Full-length wild-type and 2 mutant RT proteins were expressed in Escherichia coli BL21(DE3) cells and purified. Briefly, the heterodimeric nucleic acid substrate used in the HIV-1 RT polymerase reactions was generated by annealing biotinylated DNA primer to a 500 nucleotide RNA template. The HIV-1 RT enzyme (final concentration of 50 pM) was combined with an inhibitor compound or DMSO (10% DMSO in the final reaction mixture) in assay buffer (62.5 mM Tris-HCl, pH 7.8, 1.25 mM dithiothreitol, 7.5 mM MgCl2, 100 mM KCl, 0.03% CHAPS, 0.125 mM EGTA). This mixture was pre-incubated for 30 minutes at room temperature in microtiter plates. The polymerization reaction was initiated by the addition of template/primer substrate (final concentration: 16.6 nM) and dNTPs (final concentration: 2 μM dCTP, dGTP, dATP, and 66.6 nM Ru-dUTP). After 90 min of incubation at 37° C., reactions were quenched by the addition of EDTA (25 mM). The resulting mixture was incubated for an additional 5 minutes at room temperature followed by transferring the solution (50 μL) to blocked avidin plate from Meso Scale Discovery (MSD). The mixtures were incubated at room temperature for 60 min prior to the quantification of the reaction product via an ECL 6000 imager instrument.

On to `Cc1cn([C@H]2C[C@H](N=[N+]=[N-])[C@@H](CO)O2)c(=O)[nH]c1=O` [AZT, 3′-azido-3′-deoxythymidine], for which the concentration for a half-maximal effect (EC50) (usually the concentration giving half of the maximal effect) in the data set with HIV-1 (H9IIIB virus) is 37 nM; in data set [1] (24 h, read-out: EC50 24 h) it was 19 nM; in data set [1] (72 h, read-out: EC50 72 h), 68 nM.

Take `Nc1ncnc2c1ncn2[C@H]1C[C@H](O)[C@@H](CO)O1` [Deoxy- adenosine, deoxyadenosine]: the half-life (as a rule, the time in which the quantity being followed falls by half) in data set [2] was under 0.167 h.

On to `C#C[C@]1(CO)O[C@@H](n2cnc3c(N)ncnc32)C[C@@H]1O` [EDA, (2R,3S,5R)-5-(6-amino-9H-purin-9-yl)-2-ethynyl-2-(hydroxymethyl)tetrahydrofuran-3-ol], for which the half-life in data set [2] was under 1 h.

Turning to `C#C[C@]1(CO)O[C@@H](n2cnc3c(N)nc(F)nc32)C[C@@H]1O` [EFdA, (2R,3S,5R)-5-(6-amino-2-fluoro-9H-purin-9-yl)-2-ethynyl-2-(hydroxymethyl)tetrahydrofuran-3-ol], in data set [3], the antiviral activity entry is recorded as “potent antiviral activity”.

With `C#C[C@]1(CO)O[C@@H](n2cc(F)c3c(N)nc(Cl)nc32)C[C@@H]1O` [Example 1, (2R,3S,5R)-5-(4-amino-2-chloro-5-fluoro-7H-pyrrolo[2,3-d]pyrimidin-7-yl)-2-ethynyl-2-(hydroxymethyl)tetrahydrofuran-3-ol], the EC50 amounted to 1.2 nM with HIV-1 (H9IIIB virus); 0.38 nM in data set [1] (24 h, read-out: EC50 24 h); 3.8 nM in data set [1] (72 h, read-out: EC50 72 h). The compound further registered a half-life in data set [2] (value given as symbol) of over 240 h.

In the case of `C#C[C@]1(COP(=O)(O)OP(=O)(O)OP(=O)(O)O)O[C@@H](n2cc(F)c3c(N)nc(Cl)nc32)C[C@@H]1O` [Example 2, ammonium ((2R,3S,5R)-5-(4-amino-2-chloro-5-fluoro-7H-pyrrolo[2,3-d]pyrimidin-7-yl)-2-ethynyl-3-hydroxytetrahydrofuran-2-yl)methyl triphosphate], the IC50 (commonly the concentration at which inhibition is half-maximal) at HIV-1 RT enzyme is 490 nM.
